The text below walks through data of publication PMC4019573, “Characterization of Protein Phosphatase 5 from Three Lepidopteran Insects: Helicoverpa armigera, Mythimna separata and Plutella xylostella” (PLoS ONE, 2014).

By IC50 is commonly meant the concentration needed to halve the response being measured. As a reminder, the maximal fold induction is the signal under treatment as a multiple of the control signal. In general, Km refers to the concentration of substrate that gives half-maximal velocity.

The target in data set [1] is T1, recombinant HaPP5 (Helicoverpa armigera, UniProt A0A059TAS5).
T1 sequence (A0A059TAS5 1-490): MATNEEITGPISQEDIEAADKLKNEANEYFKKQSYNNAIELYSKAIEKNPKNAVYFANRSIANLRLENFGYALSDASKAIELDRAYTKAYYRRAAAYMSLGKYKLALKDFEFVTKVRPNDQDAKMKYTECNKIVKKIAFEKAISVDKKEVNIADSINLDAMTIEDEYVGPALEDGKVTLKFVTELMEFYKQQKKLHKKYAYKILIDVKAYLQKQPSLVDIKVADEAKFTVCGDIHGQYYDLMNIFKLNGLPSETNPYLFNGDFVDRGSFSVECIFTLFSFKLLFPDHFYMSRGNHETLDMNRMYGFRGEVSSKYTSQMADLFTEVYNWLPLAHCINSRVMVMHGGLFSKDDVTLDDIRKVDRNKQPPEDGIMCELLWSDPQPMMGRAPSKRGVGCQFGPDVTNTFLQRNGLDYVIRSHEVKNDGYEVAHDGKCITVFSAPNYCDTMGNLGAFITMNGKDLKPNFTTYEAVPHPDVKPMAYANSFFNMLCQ
The experiment in a line: Inhibition assay of recombinant HaPP5 phosphatase activity, pNPP as substrate. It counts as biochemical. As for the experimental part:
(§1) Non-enzyme samples were taken as controls.
(§2) Three candidate inhibitors were dissolved in dimethyl sulphoxide (DMSO) to provide stock solutions of 10 mM for okadaic acid, 100 mM for cantharidin, and 200 mM for endothall, respectively. All solutions were diluted to the desired concentrations with assay buffer before use. Assays were carried out using pNPP as substrate for purified proteins or using RRA(pT)VA as substrate for crude PPP extract. Before initiating the reaction, the enzyme was incubated with the chemicals for 5 min at room temperature. A dose-response assay was used to determine the IC50 values. The non-enzyme reaction was taken as the background control, while the non-inhibitor reaction was used as the full-activity control.

Data set [2] deals with T2, recombinant MsPP5 (Mythimna separata, UniProt A0A059TAW5).
T2 sequence (A0A059TAW5 1-490): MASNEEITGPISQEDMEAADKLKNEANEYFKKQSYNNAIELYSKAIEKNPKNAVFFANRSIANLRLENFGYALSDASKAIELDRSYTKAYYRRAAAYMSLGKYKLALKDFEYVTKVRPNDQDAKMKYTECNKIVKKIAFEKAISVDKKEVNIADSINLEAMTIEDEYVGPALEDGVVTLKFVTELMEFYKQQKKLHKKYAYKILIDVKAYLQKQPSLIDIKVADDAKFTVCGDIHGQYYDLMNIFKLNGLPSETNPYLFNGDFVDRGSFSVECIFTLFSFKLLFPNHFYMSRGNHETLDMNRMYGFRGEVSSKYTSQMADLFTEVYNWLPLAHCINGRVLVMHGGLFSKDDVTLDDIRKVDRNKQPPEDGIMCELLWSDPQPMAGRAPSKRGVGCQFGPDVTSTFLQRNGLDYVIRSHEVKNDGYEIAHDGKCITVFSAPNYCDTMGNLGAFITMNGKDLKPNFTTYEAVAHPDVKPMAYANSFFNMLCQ
The experiment in a line: Inhibition assay of recombinant MsPP5 phosphatase activity, pNPP as substrate. It counts as biochemical. How it is done: as §1, §2

The target of data set [3] is T3, recombinant PxPP5 (Plutella xylostella, UniProt W0FSW2).
T3 sequence (W0FSW2 1-491): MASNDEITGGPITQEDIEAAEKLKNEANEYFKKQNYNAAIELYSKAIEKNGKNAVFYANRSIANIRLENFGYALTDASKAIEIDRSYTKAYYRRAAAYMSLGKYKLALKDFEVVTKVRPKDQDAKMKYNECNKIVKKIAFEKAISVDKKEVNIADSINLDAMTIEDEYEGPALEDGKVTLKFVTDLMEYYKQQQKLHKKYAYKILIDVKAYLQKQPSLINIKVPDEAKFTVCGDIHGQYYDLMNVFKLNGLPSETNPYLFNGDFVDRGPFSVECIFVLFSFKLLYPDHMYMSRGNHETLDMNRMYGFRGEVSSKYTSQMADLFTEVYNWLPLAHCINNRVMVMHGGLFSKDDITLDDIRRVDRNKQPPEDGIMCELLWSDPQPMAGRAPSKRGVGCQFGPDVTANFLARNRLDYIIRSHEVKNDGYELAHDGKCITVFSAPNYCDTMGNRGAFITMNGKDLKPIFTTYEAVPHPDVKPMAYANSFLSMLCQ
Nature of the data set: Inhibition assay of recombinant PxPP5 phosphatase activity, pNPP as substrate. Type of data set: biochemical. As for the experimental part: as §1, §2

In data set [4] the test system is three lepidopteran PP5 proteins. Nature of the data set: Inhibition of the three recombinant lepidopteran PP5 proteins (stated jointly), pNPP as substrate. Type of data set: biochemical, H. armigera, M. separata and P. xylostella. To be noted: range over HaPP5, MsPP5 and PxPP5. As for the experimental part: as §1, §2
The test system of data set [5] is crude PPP extracts. The experiment in a line: Inhibition of phosphatase activity of crude PPP extracts, phosphopeptide RRA(pT)VA as substrate. Type of data set: biochemical, H. armigera, M. separata and P. xylostella. Conditions: treated with 1.0 µM inhibitor, range over three insect extracts. As for the experimental part:
(§3) One gram of 4th instar larvae of each insects were ground into a homogeneous state in ice-cold 20 mM Tris (pH = 7.5), 0.1% β-mercaptoethanol, 1 mM EDTA, 1 mM benzamidine and 1 mM (PMSF). This was then centrifuged at 12,000 g for 30 min at 4°C. The supernatant extract was desalted using Sephadex G-25 spin columns (GE Healthcare, Boston, MA, USA) to remove the contaminating free phosphate as described in the instruction manual. Each insect extract contained three biological replicates. Protein concentration was estimated using the method of Bradford.
(§4) Phosphatases activity of crude extract was determined towards phosphopeptides using PPP assay kit (Promega, Madison, WI, USA) in half-area 96-well plates (Corning, NY, USA) following the manual instruction. In brief, 1.0 µg protein was mixed in assay buffer of 50 mM imidazole (pH 7.2), 0.2 mM EGTA, 0.02% β-mercaptoethanol, 0.1 mg ml^−1 BSA, and pre-warmed to 30°C. Reaction was initiated after adding 100 µM phosphopeptides, RRA(pT)VA to obtain a final volume of 50 µL and incubated at 30°C for 15 min. The reaction was stopped by adding 50 µL of molybdate dye/additive mixture and incubated for an additional 15 min at room temperature for color development. Control samples were determined without enzyme.
as §2

Data set [6] has as its system E. chinensis PP5. Details: method as in PMID 24351830. Conditions: cited from earlier work.
Data set [7] concerns the target T1, recombinant HaPP5. Nature of the data set: Arachidonic acid stimulation assay and kinetics of recombinant HaPP5, pNPP as substrate. Type of data set: biochemical.
Source text: as §1

In data set [8] the target is T2, recombinant MsPP5. Nature of the data set: Arachidonic acid stimulation assay and kinetics of recombinant MsPP5, pNPP as substrate. Type of data set: biochemical.
Source text: as §1

Data set [9] concerns the target T3, recombinant PxPP5. Nature of the data set: Arachidonic acid stimulation assay and kinetics of recombinant PxPP5, pNPP as substrate. Type of data set: biochemical.
Source text: as §1

In data set [10] the test system is total crude protein phosphatases. The experiment in a line: Arachidonic acid stimulation of crude PPP extracts, phosphopeptides as substrate. It counts as biochemical, H. armigera, M. separata and P. xylostella. To be noted: larvae extracts of three insects. As for the experimental part: as §3, §4
Data set [11] relates to E. coli expressed PP5 from T. brucei. Details: method as in PMID 11290414. Conditions: cited from earlier work.
Data set [12] relates to E. coli expressed PP5 from P. falciparum. Details: method as in PMID 11897131. Conditions: cited from earlier work.
In data set [13] the test system is E. coli expressed PP5 from E. chinensis. More on the design: method as in PMID 24351830. To be noted: cited from earlier work.
Substrate in data set [14]: O=[N+]([O-])c1ccc(OP(=O)(O)O)cc1
The experiment in a line: purified protein, by the assay type. Conditions: pH 7.5; 30.0 °C.

Where [15] appears, read: 0.25 h, up to, dose dependent, maximum activation at 150 µM.
Where [16] appears, read: addition of 150 µM arachidonic acid.
The mark [17] stands for this setting: up to, dose dependent, maximum activation at 150 µM, 15 min, 150 µM.

Turning to `C[C@@]12C(=O)OC(=O)[C@]1(C)[C@H]1CC[C@@H]2O1` [cantharidin], the IC50 is 1280 ± 310 nM in [1], 2380 ± 480 nM in data set [2], 730 ± 270 nM in data set [3] and 730 to 2380 nM in [4]. Also, in data set [5], the “Residual phosphatase activities of the three crude extracts” value (shortened to “Residual phosphatase activities”) is reported as 57.65–61.23%.

Consider `O=C(O)[C@@H]1[C@H](C(=O)O)[C@H]2CC[C@@H]1O2` [endothall], for which the IC50 in data set [1] is 19300 ± 2340 nM; in data set [2], 12600 ± 1620 nM; in data set [3] it was 6840 ± 470 nM. Moreover, in data set [5], the “Residual phosphatase activities” value is 83.77–87.66%.

Regarding `C=C1[C@@H](O)[C@@H]2O[C@]3(CC[C@H](/C=C/[C@@H](C)[C@@H]4CC(C)=C[C@@]5(O[C@H](C[C@@](C)(O)C(=O)O)CC[C@H]5O)O4)O3)CC[C@H]2O[C@@H]1[C@@H](O)C[C@H](C)[C@H]1O[C@@]2(CCCCO2)CC[C@H]1C` [okadaic acid], the half-maximal inhibitory concentration (IC50) in data set [1] was 41.8 ± 3.31 nM; in [2], 17.6 ± 3.2 nM; in [3] it was 25 ± 1.64 nM; in data set [6] it was 190 nM. Besides, the “Residual phosphatase activities” value in data set [5] was 16.37–18.89%.

As to `CCCCC/C=C\C/C=C\C/C=C\C/C=C\CCCC(=O)O` [arachidonic acid], the maximal fold induction at 150 µM in data set [7] (setting [15]) is ~2. Besides, in data set [7] (setting [16]), the “Elevation of Vmax value of HaPP5” value was 1.33 fold and the “Reduction of Km value of HaPP5” value was 2.07 fold. Moreover, in data set [7] (setting [17]), the “Stimulation of activity of recombinant HaPP5” value is “up to 1.78 fold”. The maximal fold induction at 150 µM in data set [8] (setting [15]) is ~2. In [8] (setting [16]), the “Elevation of Vmax value of MsPP5” value worked out at 1.54 fold and the “Reduction of Km value of MsPP5” value was found to be 1.86 fold. The “Stimulation of activity of recombinant MsPP5” value in data set [8] (setting [17]) is reported as ≤ 1.99 fold. Also, the maximal fold induction at 150 µM in data set [9] (setting [15]) was ~2. Further, in [9] (setting [16]), the “Elevation of Vmax value of PxPP5” value worked out at 1.26 fold and the “Reduction of Km value of PxPP5” value amounted to 2.16 fold. Moreover, the “Stimulation of activity of recombinant PxPP5” value in [9] (setting [17]) was ≤ 1.81 fold. Moreover, the “Stimulation of phosphatase activity of total crude extracts” value in data set [10] is “no significant stimulation”. Moreover, the “Maximum activation of E. coli expressed PP5 from T. brucei” value in data set [11] was 2.6 fold. Moreover, in data set [12], the “Maximum activation of E. coli expressed PP5 from P. falciparum” value is given as 2.0 fold. Besides, in data set [13], the “Maximum activation of E. coli expressed PP5 from E. chinensis” value is 2.3 fold.

B1: PxPP5 (Plutella xylostella) (protein)
chain: T3 sequence (W0FSW2 1-491)
As for B1, the Michaelis-Menten constant (Km) in data set [14] came to 8.83 ± 0.75 mM.

B2: MsPP5 (Mythimna separata) (protein)
chain: T2 sequence (A0A059TAW5 1-490)
For B2, in [14], the Michaelis-Menten constant (Km) was found to be 9.01 ± 0.51 mM.

B3: HaPP5 (Helicoverpa armigera) (protein)
chain: T1 sequence (A0A059TAS5 1-490)
With B3, in [14], the Km is 8.64 ± 0.95 mM.
